How the values were obtained:
Cytochrome P450 2C9 = Cytochrome P450 2C9 (Homo sapiens, UniProt P11712); test: Inhibition of CYP2C9 (unknown origin)
Cytochrome P450 2C19 = Cytochrome P450 2C19 (Homo sapiens, UniProt P33261); test: Inhibition of CYP2C19 (unknown origin)
[1] = molecular target: Potassium voltage-gated channel subfamily H member 2 (Homo sapiens, UniProt Q12809); test: Inhibition of human ERG expressed in CHO cells at holding potential of -80 mV by whole cell patch clamp assay
Potassium voltage-gated channel subfamily H member 2, sequence (Q12809 whole entry): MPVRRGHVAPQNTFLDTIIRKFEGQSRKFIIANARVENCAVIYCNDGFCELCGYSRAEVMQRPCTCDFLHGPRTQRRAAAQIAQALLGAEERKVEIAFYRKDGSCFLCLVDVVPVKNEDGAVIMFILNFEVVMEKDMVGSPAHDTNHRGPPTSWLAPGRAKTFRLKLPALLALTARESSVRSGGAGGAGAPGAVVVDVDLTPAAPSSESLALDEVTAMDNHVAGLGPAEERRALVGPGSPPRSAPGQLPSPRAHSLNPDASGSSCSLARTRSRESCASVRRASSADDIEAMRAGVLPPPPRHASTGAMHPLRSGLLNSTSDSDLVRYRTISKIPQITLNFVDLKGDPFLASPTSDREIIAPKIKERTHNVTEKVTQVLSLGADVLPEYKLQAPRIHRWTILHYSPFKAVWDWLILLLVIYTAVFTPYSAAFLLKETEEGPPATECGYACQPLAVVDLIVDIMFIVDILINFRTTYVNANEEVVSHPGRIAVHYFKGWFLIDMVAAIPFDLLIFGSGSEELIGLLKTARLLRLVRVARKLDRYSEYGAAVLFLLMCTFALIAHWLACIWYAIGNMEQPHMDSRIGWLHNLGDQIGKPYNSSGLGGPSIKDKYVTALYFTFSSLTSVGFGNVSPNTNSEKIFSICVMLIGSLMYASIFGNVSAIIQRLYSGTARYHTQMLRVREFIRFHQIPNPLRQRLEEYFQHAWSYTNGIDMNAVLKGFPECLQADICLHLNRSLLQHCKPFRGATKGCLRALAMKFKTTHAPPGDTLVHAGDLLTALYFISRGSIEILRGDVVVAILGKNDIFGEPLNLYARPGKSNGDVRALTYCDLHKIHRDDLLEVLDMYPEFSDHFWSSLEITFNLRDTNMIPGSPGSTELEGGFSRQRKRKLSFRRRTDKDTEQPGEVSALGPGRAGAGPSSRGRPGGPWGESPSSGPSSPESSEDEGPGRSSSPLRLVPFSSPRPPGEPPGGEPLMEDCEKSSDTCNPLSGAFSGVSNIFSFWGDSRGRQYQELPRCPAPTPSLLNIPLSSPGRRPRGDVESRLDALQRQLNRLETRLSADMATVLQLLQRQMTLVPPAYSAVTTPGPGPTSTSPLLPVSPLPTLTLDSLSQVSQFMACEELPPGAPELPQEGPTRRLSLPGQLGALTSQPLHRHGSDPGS

Cytochrome P450 2C9, sequence (P11712 whole entry): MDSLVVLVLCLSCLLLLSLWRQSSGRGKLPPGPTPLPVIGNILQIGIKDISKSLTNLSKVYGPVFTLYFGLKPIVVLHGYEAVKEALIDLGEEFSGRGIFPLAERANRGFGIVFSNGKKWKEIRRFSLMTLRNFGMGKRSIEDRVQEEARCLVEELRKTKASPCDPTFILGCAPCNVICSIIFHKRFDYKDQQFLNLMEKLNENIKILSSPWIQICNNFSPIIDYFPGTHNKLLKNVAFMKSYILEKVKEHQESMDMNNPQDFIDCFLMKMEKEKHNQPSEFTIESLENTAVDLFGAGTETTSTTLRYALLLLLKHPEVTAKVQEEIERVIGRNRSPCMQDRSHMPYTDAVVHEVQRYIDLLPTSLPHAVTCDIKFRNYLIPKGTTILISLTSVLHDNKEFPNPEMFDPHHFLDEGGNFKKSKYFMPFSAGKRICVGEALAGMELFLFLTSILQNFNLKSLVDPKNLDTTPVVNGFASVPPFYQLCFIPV
Cytochrome P450 2C19, sequence (P33261 whole entry): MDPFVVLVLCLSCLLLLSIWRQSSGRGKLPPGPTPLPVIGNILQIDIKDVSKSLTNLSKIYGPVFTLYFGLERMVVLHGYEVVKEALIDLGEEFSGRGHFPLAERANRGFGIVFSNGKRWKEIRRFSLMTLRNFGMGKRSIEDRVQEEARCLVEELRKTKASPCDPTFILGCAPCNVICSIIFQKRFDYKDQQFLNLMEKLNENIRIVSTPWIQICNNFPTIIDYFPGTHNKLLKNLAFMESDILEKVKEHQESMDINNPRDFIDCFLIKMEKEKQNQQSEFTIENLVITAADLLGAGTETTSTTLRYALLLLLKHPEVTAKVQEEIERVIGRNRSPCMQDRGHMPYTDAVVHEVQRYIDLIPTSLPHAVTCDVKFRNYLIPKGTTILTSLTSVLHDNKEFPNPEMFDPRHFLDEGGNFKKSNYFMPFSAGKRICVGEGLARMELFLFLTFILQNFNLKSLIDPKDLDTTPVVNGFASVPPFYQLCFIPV

`c1ccc([C@]2(CCNCc3scc4c3CCC4)CCO[C@]3(CCOC3)C2)nc1` [US11124523, Example (+)-2] gave an IC50 (Cytochrome P450 2C9) of over 50 µM, an IC50 (Cytochrome P450 2C19) of over 50 µM and an IC50 [1] of over 40 µM.
`Fc1ccc([C@]2(CCNCc3cccc(Cl)c3)CCO[C@]3(CCOC3)C2)nc1` [US11124523, Example (+)-16] showed an IC50 (Cytochrome P450 2C9) of over 50 µM.

Reference: BindingDB's records for doi:10.1016/j.ejmech.2021.113986 (Yantai University, 2022)
